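Method: 48-hour compound exposure of cells in 96-well plates, five concentrations, linear interpolation of endpoints. GI50: concentration for 50% inhibition of growth. TGI: total growth inhibition.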
What was measured:
Experiment in all cases: NCI-60 cell line screen, 48 h
[1] = test system: NCI/ADR-RES ovarian
[2] = test system: OVCAR-5 ovarian
[3] = test system: DU-145 prostate
[4] = test system: U251 CNS
[5] = test system: T-47D breast
[6] = test system: SF-268 CNS
[7] = test system: COLO 205 colon
[8] = test system: A549 NSCLC
[9] = test system: SK-MEL-28 melanoma
[10] = test system: MDA-N
[11] = test system: KM12 colon
[12] = test system: MDA-MB-435
[13] = test system: LOX IMVI melanoma
[14] = test system: BT-549 breast
[15] = test system: HOP-92 NSCLC
[16] = test system: HT29 colon
[17] = test system: ACHN renal
[18] = test system: 786-0 renal
[19] = test system: HOP-62 NSCLC
[20] = test system: NCI-H23 lung
[21] = test system: RXF 393 renal
[22] = test system: EKVX NSCLC
[23] = test system: OVCAR-3 ovarian
[24] = test system: OVCAR-4 ovarian
[25] = test system: SK-MEL-2 melanoma
[26] = test system: HCT-116 colon
[27] = test system: HCT-15 colon
[28] = test system: MDA-MB-231 breast
[29] = test system: OVCAR-8 ovarian
[30] = test system: CCRF-CEM leukemia
[31] = test system: SF-295 CNS
[32] = test system: SNB-75 CNS
[33] = test system: RPMI-8226 leukemia
[34] = test system: TK-10 renal
[35] = test system: SR leukemia
[36] = test system: UACC-257 melanoma
[37] = test system: UACC-62 melanoma
[38] = test system: SK-OV-3 ovarian
[39] = test system: SN12C renal
[40] = test system: IGROV1 ovarian
[41] = test system: NCI-H522 lung
[42] = test system: NCI-H460 lung
[43] = test system: HCC-2998 colon
[44] = test system: M14 melanoma
[45] = test system: MOLT-4 leukemia
[46] = test system: NCI-H226 lung
[47] = test system: UO-31 renal
[48] = test system: A498 renal
[49] = test system: SK-MEL-5 melanoma
[50] = test system: MCF7 breast
[51] = test system: PC-3 prostate
[52] = test system: HL-60(TB) leukemia
[53] = test system: HS 578T breast
[54] = test system: SW-620 colon
[55] = test system: K-562 leukemia
[56] = test system: SNB-19 CNS
[57] = test system: CAKI-1 renal
[58] = test system: MALME-3M melanoma
[59] = test system: SF-539 CNS

`Cn1c(=O)c2c(nc3n(Cc4ccccc4)c(=O)c(NCCBr)cn23)n(C)c1=O` showed a TGI [1] of 60.2 µM, a TGI [2] of over 100 µM and a TGI [3] of over 100 µM. For the same molecule, the TGI [4] was over 100 µM, the TGI [5] was 52.9 µM and the TGI [6] was over 100 µM. The TGI [7] was over 100 µM, the TGI [8] was over 100 µM and the TGI [9] was over 100 µM. The TGI [10] was over 100 µM, the TGI [11] was over 100 µM and the TGI [12] was over 100 µM. For the same molecule, the TGI [13] was over 100 µM, the TGI [14] was over 100 µM and the TGI [15] was 36.2 µM. For the same molecule, the TGI [16] was over 100 µM, the TGI [17] was 32.3 µM and the TGI [18] was 37 µM. The TGI [19] was 43.2 µM, the TGI [20] was over 100 µM and the TGI [21] was 35 µM. It also gave a TGI [22] of 48.1 µM, a TGI [23] of 66.7 µM and a TGI [24] of 49.2 µM. It also gave a TGI [25] of 74.2 µM, a TGI [26] of 82 µM and a TGI [27] of over 100 µM. The TGI [28] was 72.2 µM, the TGI [29] was 33.8 µM and the TGI [30] was over 100 µM. The TGI [31] was 43.1 µM, the TGI [32] was 49.8 µM and the TGI [33] was over 100 µM. The TGI [34] was 44.5 µM, the TGI [35] was 52.9 µM and the TGI [36] was over 100 µM. The TGI [37] was over 100 µM, the TGI [38] was 51.9 µM and the TGI [39] was over 100 µM. It also gave a TGI [40] of over 100 µM, a TGI [41] of 62.8 µM and a TGI [42] of over 100 µM. It also gave a TGI [43] of 52 µM, a TGI [44] of over 100 µM and a TGI [45] of over 100 µM. The TGI [46] was 63.1 µM, the TGI [47] was 36 µM and the TGI [48] was 91.1 µM. The TGI [49] was over 100 µM, the TGI [50] was over 100 µM and the TGI [51] was over 100 µM. For the same molecule, the TGI [52] was over 100 µM, the TGI [53] was 76.6 µM and the TGI [54] was over 100 µM. The TGI [55] was over 100 µM, the TGI [56] was over 100 µM and the TGI [57] was 37.6 µM.
With `CCOC(=O)c1c(Br)c(-c2ccc(Br)cc2)c(Br)n1C` the GI50 [1] was 21.2 µM, the TGI [1] was 87.5 µM and the TGI [2] was 59.7 µM. The TGI [3] was over 100 µM, the TGI [4] was 55 µM and the TGI [5] was over 100 µM. The TGI [6] was 75.9 µM, the TGI [7] was 34.3 µM and the TGI [8] was over 100 µM. The TGI [9] was 51.8 µM, the GI50 [10] was 5.64 µM and the TGI [10] was 32.5 µM. For the same molecule, the TGI [11] was 26.4 µM, the GI50 [12] was 4.26 µM and the TGI [12] was 22.6 µM. For the same molecule, the GI50 [13] was 14.3 µM, the TGI [13] was 30.4 µM and the TGI [14] was 79.4 µM. It also gave a GI50 [15] of 14.3 µM, a TGI [15] of 55.7 µM and a TGI [16] of 42.5 µM. It also gave a TGI [17] of 84.7 µM, a TGI [18] of 89.7 µM and a TGI [19] of 53.1 µM. For the same molecule, the TGI [20] was over 100 µM, the TGI [21] was 34.2 µM and the GI50 [22] was 20.3 µM. It also gave a TGI [22] of 74.2 µM, a TGI [23] of 38.7 µM and a TGI [24] of over 100 µM. It also gave a GI50 [26] of 14.8 µM, a TGI [26] of 34.4 µM and a TGI [27] of 73 µM. It also gave a TGI [28] of 50.1 µM, a TGI [29] of 87.1 µM and a TGI [30] of 31.5 µM. For the same molecule, the TGI [31] was 45.6 µM, the GI50 [32] was 5.3 µM and the TGI [32] was 49.7 µM. For the same molecule, the TGI [33] was 42.3 µM, the TGI [34] was over 100 µM and the GI50 [35] was 10 µM. The TGI [35] was 26.1 µM, the TGI [36] was 78 µM and the GI50 [37] was 23.6 µM. The TGI [37] was over 100 µM, the TGI [38] was over 100 µM and the TGI [39] was 84 µM. For the same molecule, the TGI [40] was over 100 µM, the GI50 [41] was 11.2 µM and the TGI [41] was 44.5 µM. It also gave a TGI [42] of over 100 µM, a TGI [43] of 42.1 µM and a TGI [44] of 63.3 µM. It also gave a TGI [45] of 37.6 µM, a TGI [46] of 49.4 µM and a TGI [47] of over 100 µM. The TGI [58] was 62.7 µM, the TGI [48] was 44.2 µM and the TGI [49] was 35.2 µM. The TGI [59] was 73.2 µM, the TGI [50] was 80.7 µM and the TGI [51] was 71.1 µM. The GI50 [52] was 5.24 µM, the TGI [52] was 16.6 µM and the TGI [53] was over 100 µM. It also gave a TGI [54] of over 100 µM, a GI50 [55] of 11.3 µM and a TGI [55] of 35.1 µM. For the same molecule, the TGI [56] was over 100 µM and the TGI [57] was 75.2 µM.
Molecule `CC(C)=CC(=O)O[C@H]1C(=O)O[C@@H]2C[C@H]3[C@H](C)C(=O)C(O[C@@H]4O[C@H](CO)[C@@H](O)[C@H](O)[C@H]4O)=C[C@]3(C)[C@H]3[C@@H](O)[C@H](O)[C@]4(C(=O)O)OC[C@]32[C@@H]14` has a GI50 [1] of over 100 µM, a TGI [1] of over 100 µM and a TGI [2] of over 100 µM. The GI50 [3] was over 100 µM, the TGI [3] was over 100 µM and the GI50 [4] was 40 µM. It also gave a TGI [4] of over 100 µM, a TGI [5] of over 100 µM and a GI50 [6] of over 100 µM. The TGI [6] was over 100 µM, the TGI [7] was over 100 µM and the GI50 [8] was 55 µM. For the same molecule, the TGI [8] was over 100 µM, the GI50 [9] was 37.3 µM and the TGI [9] was over 100 µM. It also gave a TGI [10] of over 100 µM, a GI50 [11] of 49.1 µM and a TGI [11] of over 100 µM. For the same molecule, the TGI [12] was over 100 µM, the GI50 [13] was 40.3 µM and the TGI [13] was over 100 µM. It also gave a GI50 [14] of over 100 µM, a TGI [14] of over 100 µM and a GI50 [15] of 31.4 µM. The TGI [15] was over 100 µM, the GI50 [16] was 35.6 µM and the TGI [16] was over 100 µM. For the same molecule, the GI50 [17] was over 100 µM, the TGI [17] was over 100 µM and the TGI [18] was over 100 µM. It also gave a GI50 [19] of 33.2 µM, a TGI [19] of over 100 µM and a TGI [20] of over 100 µM. For the same molecule, the GI50 [21] was 25.4 µM, the TGI [21] was 73.1 µM and the GI50 [22] was over 100 µM. The TGI [22] was over 100 µM, the GI50 [23] was 20.3 µM and the TGI [23] was 52.1 µM. It also gave a GI50 [24] of 25.2 µM, a TGI [24] of over 100 µM and a GI50 [26] of 29.8 µM. It also gave a TGI [26] of over 100 µM, a GI50 [27] of over 100 µM and a TGI [27] of over 100 µM. It also gave a GI50 [28] of over 100 µM, a TGI [28] of over 100 µM and a GI50 [29] of over 100 µM. For the same molecule, the TGI [29] was over 100 µM, the GI50 [30] was 36.3 µM and the TGI [30] was over 100 µM. The TGI [32] was over 100 µM, the TGI [34] was over 100 µM and the GI50 [35] was 31.2 µM. The TGI [35] was over 100 µM, the TGI [36] was over 100 µM and the TGI [37] was over 100 µM. It also gave a GI50 [38] of over 100 µM, a TGI [38] of over 100 µM and a GI50 [39] of over 100 µM. It also gave a TGI [39] of over 100 µM, a TGI [40] of over 100 µM and a GI50 [41] of 29 µM. For the same molecule, the TGI [41] was 52.6 µM, the GI50 [42] was 32 µM and the TGI [42] was over 100 µM. The GI50 [43] was 24.7 µM, the TGI [43] was 57.5 µM and the GI50 [44] was 32.1 µM. It also gave a TGI [44] of over 100 µM, a GI50 [45] of 22.4 µM and a TGI [45] of over 100 µM. For the same molecule, the GI50 [46] was 28.4 µM, the TGI [46] was 85 µM and the GI50 [47] was 31.3 µM. The TGI [47] was over 100 µM, the GI50 [58] was 24.2 µM and the TGI [58] was 61.1 µM. The TGI [48] was over 100 µM, the GI50 [49] was 42.9 µM and the TGI [49] was over 100 µM. The GI50 [59] was 26.6 µM, the TGI [59] was 67.1 µM and the GI50 [50] was 22.2 µM. The TGI [50] was 66.1 µM, the TGI [51] was over 100 µM and the GI50 [52] was 35.8 µM. For the same molecule, the TGI [52] was over 100 µM, the GI50 [53] was over 100 µM and the TGI [53] was over 100 µM. It also gave a TGI [54] of over 100 µM, a GI50 [55] of 25.8 µM and a TGI [55] of over 100 µM. The GI50 [56] was 31.3 µM, the TGI [56] was over 100 µM and the TGI [57] was over 100 µM.

From PubChem BioAssay (NCI)
